# ChEMBL document CHEMBL1201862, “PubChem BioAssay data set” (2004)
# The source made the active and inactive calls.
# Experiments:
# [1] = Glucagon-like peptide 1 release potency, NCI-H716 cell line, dose-response, half-maximal inhibitory concentration (AID 1117344); assay type: functional, cell-based
# [2] = half-maximal inhibitory concentration for glucagon-like peptide-1 release, STC-1 cell line, dose-response (AID 1117345); assay type: functional, cell-based
# [3] = ZM109 Env clade C HIV-1 fusion inhibitors, dose response, HeLa effector, CEM target cells, luciferase, cherry-pick (AID 652058); assay type: functional, cell-based
# [4] = inhibitors of clade B AD8 Env fusion, dose response, cell-based, cherry-pick (AID 652062); assay type: functional;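 note: luciferase signal from cell-cell fusion driven by HIV-1 clade B AD8 Env; potency is for inhibitors of fusion seen as a drop in luminescence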
# [5] = inhibitors of HIV Env-driven cell fusion, dose response, cherry-pick (AID 652057); assay type: functional, cell-based
# Estrogen receptor = target: T1, Estrogen receptor (Homo sapiens, UniProt P03372);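 note: potency for inhibiting coactivator peptide recruitment to the receptor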
# T1 sequence (P03372 whole entry): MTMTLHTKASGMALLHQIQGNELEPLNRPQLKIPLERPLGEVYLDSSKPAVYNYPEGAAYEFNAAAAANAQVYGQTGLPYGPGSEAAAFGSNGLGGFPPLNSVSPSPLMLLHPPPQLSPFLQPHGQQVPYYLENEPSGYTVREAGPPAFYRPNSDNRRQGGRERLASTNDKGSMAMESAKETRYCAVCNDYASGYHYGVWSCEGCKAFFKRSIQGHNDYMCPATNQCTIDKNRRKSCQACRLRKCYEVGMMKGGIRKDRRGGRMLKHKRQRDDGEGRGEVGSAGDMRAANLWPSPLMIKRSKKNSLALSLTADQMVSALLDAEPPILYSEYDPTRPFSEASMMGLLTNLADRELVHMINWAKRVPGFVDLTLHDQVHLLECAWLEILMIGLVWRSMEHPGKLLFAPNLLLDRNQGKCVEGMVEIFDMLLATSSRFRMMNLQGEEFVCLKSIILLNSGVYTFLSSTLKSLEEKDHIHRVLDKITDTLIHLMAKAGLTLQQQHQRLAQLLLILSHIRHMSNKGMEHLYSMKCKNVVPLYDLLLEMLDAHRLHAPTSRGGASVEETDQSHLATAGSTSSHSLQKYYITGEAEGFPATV
# [6] = off-target signal loss in HeLa-CEM21 co-culture – HeLa F-luc CTL cells, cherry-picked, counter-screen for HIV-1 Env fusion inhibitor project, dose response (AID 652040); assay type: functional, cell-based;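 note: potency for signal decrease marking cytotoxic or nonspecific inhibition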
# HeLa = test: HeLa cell cytotoxicity, dose response, cytotoxicity control for MITF activator project, CellTiter-Glo luminescence, cherry-pick samples (AID 540259); assay type: functional, cell-based; settings: Homo sapiens
# HT-1080 = test: cytotoxicity in HT1080 fibrosarcoma cells, cell-based, fluorescence readout (AID 620); assay type: functional; settings: Homo sapiens
# [7] = target: T2, Luciferin 4-monooxygenase (Photinus pyralis, UniProt P08659); test: Counter Screen for Luciferase-based Assay Positives. [Related pubchem assays: 620, 618, 411 ]
# [8] = target: NAD-dependent protein deacylase sirtuin-5, mitochondrial (Homo sapiens, UniProt Q9NXA8); test: SIRT5 desuccinylase inhibitors, dose response, biochemical, fluorescence imaging, cherry-pick, set 5 (AID 720591);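 note: desuccinylation of succinyl peptide AMC substrate read as fluorescence after trypsin release; potency of inhibitors that lower fluorescence and may act on trypsin instead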
# [9] = cytotoxicity toward DRD oncogenic fibroblasts, dose response, cell-based, non-viral oncogenic, luminescence (AID 1934); assay type: functional; settings: Homo sapiens
# [10] = target: T2, Luciferin 4-monooxygenase; test: firefly luciferase enzyme inhibitors, dose response, biochemical, luminescence (AID 1891)
# BJ [11] = test: cells; assay type: functional, cell-based; settings: Homo sapiens
# [12] = Luminescence Cell-Based Dose Confirmation HTS to Identify Inhibitors of Platelet Dense Granule Release. [Related pubchem assays: 1663 (Primary HTS), 1678 (Summary of Project)]; assay type: functional
# BJ [13] = test: cytotoxicity toward BJ-TERT fibroblasts, dose response, cell-based, RAS-independent, luminescence (AID 1933); assay type: functional; settings: Homo sapiens
# BJ [14] = test: cytotoxicity toward BJ-TERT-LT-ST fibroblasts, dose response, cell-based, RAS-independent, luminescence (AID 1935); assay type: functional; settings: Homo sapiens;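 note: BJ fibroblasts immortalized with TERT plus LT and ST oncogenes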
# [15] = target: T3, Acyl-homoserine lactone acylase PvdQ (Pseudomonas aeruginosa (strain LESB58), UniProt Q9I194); test: P. aeruginosa PvdQ acylase inhibitors, dose response, biochemical, fluorescence, plate reader and imaging, cherry-picks (AID 493231)
# T3 sequence (Q9I194 whole entry): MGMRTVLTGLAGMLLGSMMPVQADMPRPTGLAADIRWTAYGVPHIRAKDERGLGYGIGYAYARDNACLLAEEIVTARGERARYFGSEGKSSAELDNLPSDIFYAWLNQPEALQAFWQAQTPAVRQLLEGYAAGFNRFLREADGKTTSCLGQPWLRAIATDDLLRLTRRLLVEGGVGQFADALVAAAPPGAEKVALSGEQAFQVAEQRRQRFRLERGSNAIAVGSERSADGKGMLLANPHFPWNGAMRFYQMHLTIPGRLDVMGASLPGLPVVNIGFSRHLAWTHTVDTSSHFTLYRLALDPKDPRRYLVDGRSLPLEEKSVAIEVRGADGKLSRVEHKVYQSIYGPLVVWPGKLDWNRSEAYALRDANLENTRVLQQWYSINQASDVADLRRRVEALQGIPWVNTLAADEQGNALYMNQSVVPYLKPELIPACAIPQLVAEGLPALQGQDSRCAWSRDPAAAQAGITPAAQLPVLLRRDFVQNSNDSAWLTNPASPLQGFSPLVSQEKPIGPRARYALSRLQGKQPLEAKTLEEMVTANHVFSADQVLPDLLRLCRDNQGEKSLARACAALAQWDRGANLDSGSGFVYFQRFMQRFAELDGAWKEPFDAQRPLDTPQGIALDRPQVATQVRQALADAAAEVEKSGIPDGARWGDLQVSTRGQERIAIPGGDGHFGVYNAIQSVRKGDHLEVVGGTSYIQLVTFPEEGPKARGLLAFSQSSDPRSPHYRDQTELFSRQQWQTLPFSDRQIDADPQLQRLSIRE
# [16] = A549 cell cytotoxicity, dose response, cytotoxicity control, plate reader, cherry-pick, antagonist series (AID 743412); assay type: functional, cell-based
# Protein skinhead-1 = target: T4, Protein skinhead-1 (Caenorhabditis elegans, UniProt P34707); assay type: functional
# T4 sequence (P34707 whole entry): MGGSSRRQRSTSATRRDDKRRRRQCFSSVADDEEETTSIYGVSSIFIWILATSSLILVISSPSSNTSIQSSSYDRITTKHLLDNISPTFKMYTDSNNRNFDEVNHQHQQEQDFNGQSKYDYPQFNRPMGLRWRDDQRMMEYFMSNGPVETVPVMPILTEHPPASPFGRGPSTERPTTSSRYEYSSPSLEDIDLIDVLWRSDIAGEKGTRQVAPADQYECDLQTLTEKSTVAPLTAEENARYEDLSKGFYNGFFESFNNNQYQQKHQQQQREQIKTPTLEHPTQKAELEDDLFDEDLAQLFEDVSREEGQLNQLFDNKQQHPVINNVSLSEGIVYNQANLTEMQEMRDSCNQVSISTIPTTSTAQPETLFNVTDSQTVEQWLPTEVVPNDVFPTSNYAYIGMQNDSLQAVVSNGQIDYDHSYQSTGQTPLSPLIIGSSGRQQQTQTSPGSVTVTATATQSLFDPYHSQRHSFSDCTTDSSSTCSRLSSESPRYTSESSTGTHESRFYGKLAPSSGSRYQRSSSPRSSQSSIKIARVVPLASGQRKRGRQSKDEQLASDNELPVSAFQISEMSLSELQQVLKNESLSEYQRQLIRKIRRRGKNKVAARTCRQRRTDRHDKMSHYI
# [17] = target: T5, Heat shock factor protein 1 (Mus musculus, UniProt P38532); test: inhibition of MG132-induced HSE-luciferase signal, confirmation, cell-based, NIH3T3, luminescence, dose retest (AID 2382); assay type: functional;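 note: NIH3T3 fibroblasts with HSF1-driven luciferase reporter stressed by proteasome inhibitor MG132; luminescence from HSF1-driven luciferase expression after 8 hours of MG132 stress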
# T5 sequence (P38532 whole entry): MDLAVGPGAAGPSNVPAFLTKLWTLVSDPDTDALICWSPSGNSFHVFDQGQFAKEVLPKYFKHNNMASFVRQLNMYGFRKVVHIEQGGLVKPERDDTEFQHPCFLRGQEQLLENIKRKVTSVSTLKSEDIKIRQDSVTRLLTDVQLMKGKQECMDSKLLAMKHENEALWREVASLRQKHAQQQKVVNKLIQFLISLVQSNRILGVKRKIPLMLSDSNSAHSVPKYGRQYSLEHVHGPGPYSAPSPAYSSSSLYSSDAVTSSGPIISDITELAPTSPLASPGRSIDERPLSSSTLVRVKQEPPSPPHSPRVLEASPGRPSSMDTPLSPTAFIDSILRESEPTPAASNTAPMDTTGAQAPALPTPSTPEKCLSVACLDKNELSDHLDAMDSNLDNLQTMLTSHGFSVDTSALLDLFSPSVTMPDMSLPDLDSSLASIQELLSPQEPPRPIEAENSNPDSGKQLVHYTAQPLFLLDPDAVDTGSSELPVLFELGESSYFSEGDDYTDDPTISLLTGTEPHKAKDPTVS
# [18] = MC4R antagonists, dose response, counter-screen for LGR2 antagonist project, cell-based, plate reader, cherry pick (AID 743444); assay type: functional;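 note: transfected HEK 293 cells stimulated with alpha-MSH peptide; potency of inhibitors of the alpha-MSH evoked signal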
# [19] = LGR2 antagonists, dose response, cell-based, HEK293, CRE-luciferase reporter, cherry pick, set 2 (AID 743343); assay type: functional;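 note: transfected cells were stimulated with diluted bursicon conditioned medium after compound addition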
# [20] = THP-1 cell cytotoxicity, dose response, cytotoxicity control for Vif-APOBEC3G degradation inhibitor project, THP-1 cells (AID 1117359); assay type: functional; settings: Human immunodeficiency virus 1, THP-1
# [21] = Jurkat T cell cytotoxicity, dose response, cytotoxicity control for P. falciparum gametocyte viability project, luminescence (AID 1117277); assay type: functional, cell-based;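 note: potency reflects loss of cellular ATP meaning fewer viable cells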
# [22] = P. falciparum late gametocyte killing, dose response, luminescence (AID 1117278); assay type: functional, cell-based;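 note: gametocytes exposed to compound for 24 hours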
# [23] = target: T6, RNA-editing ligase 1, mitochondrial (Trypanosoma brucei brucei, UniProt P86926); test: TbREL1 ligase inhibitors, dose response, biochemical, fluorescence, Trypanosoma brucei (AID 1117295); assay type: functional
# T6 sequence (P86926 whole entry): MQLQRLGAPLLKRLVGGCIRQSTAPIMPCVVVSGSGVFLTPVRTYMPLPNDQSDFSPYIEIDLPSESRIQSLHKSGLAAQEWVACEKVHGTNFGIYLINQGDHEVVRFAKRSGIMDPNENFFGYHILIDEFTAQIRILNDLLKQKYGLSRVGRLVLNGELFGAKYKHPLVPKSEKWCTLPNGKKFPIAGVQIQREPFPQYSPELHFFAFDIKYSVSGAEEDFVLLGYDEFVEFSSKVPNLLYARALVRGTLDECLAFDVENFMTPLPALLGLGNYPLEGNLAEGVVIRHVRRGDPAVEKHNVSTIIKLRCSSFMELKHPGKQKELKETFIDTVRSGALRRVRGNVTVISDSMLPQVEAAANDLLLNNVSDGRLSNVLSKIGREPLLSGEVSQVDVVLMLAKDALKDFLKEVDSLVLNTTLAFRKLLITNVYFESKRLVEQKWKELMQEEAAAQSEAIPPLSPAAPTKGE
# [24] = P. falciparum Dd2 growth inhibitors, dose response, SYBR Green, cherry-picked samples (AID 1159567); assay type: functional, cell-based
# [25] = HepG2 cell cytotoxicity, dose response, cytotoxicity control, cherry-picked samples (AID 1159577); assay type: functional, cell-based
# T2 sequence (P08659 whole entry): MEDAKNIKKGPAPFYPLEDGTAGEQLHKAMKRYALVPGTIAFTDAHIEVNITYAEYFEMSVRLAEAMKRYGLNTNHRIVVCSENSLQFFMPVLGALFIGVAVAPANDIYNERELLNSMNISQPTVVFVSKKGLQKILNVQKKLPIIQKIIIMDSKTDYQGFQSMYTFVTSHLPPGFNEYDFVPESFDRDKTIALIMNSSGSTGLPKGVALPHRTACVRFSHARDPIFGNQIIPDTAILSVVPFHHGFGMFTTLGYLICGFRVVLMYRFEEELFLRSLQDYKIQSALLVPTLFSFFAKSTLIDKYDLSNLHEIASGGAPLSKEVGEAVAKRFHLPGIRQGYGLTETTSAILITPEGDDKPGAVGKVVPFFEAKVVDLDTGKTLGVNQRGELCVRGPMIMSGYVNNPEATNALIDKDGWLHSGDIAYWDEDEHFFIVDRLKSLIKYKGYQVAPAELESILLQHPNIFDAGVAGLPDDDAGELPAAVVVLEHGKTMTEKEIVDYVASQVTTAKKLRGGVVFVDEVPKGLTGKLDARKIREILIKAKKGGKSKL
# NAD-dependent protein deacylase sirtuin-5, mitochondrial, sequence (Q9NXA8 whole entry): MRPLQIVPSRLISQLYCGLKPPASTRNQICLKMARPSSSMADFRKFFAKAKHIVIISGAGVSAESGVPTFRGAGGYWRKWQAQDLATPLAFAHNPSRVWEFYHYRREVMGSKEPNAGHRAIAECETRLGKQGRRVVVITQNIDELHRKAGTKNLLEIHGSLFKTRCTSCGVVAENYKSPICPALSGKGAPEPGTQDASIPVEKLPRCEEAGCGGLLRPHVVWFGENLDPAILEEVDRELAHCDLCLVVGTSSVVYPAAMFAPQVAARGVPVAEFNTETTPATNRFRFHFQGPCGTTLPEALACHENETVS
smiles,measurement,setting,value
CCCCCCCCCCCCOCCOCCOCCOCCOCCOCCOCCOCCOCCO,IC50,[1],> 40 µM (inactive)
same,IC50,[2],30.4 µM (inactive)
Cc1ccc(C(C(=O)NC(C)(C)C)N(Cc2cccs2)C(=O)c2csnn2)cc1 (stereo not drawn),AC50,[3],17.5 µM (active)
same,AC50,[4],1.67 µM (active)
same,AC50,[5],10.2 µM (active)
same,IC50,Estrogen receptor,> 50 µM (not active)
same,AC50,[6],22.6 µM (active)
Cc1ccc(SCc2cn3c(C)csc3n2)cc1,AC50,HeLa,54.9 µM (active)
same,EC50,HT-1080,> 50 µM (not active)
same,EC50,[7],< 0.2 µM (active)
O=C1NNC(=O)C1c1ccccc1,AC50,[8],> 30 µM (inactive)
O=C(Nc1ccccn1)c1cc2ccccc2o1,EC50,[9],11.2 µM (active)
same,EC50,[10],3.03 µM (active)
same,EC50,BJ [11],16.1 µM (active)
same,EC50,HT-1080,> 50 µM (not active)
same,EC50,[7],0.22 µM (active)
same,EC50,[12],3.9 µM (active)
same,EC50,BJ [13],11.2 µM (active)
same,EC50,BJ [14],> 150 µM (inconclusive)
CCOc1ccc(-c2cnc3ccccc3n2)cc1,AC50,[15],97.4 µM (active)
same,AC50,[16],30.8 µM (active)
same,IC50,Protein skinhead-1,> 100 µM (inactive)
same,EC50,[17],10 µM (active)
same,AC50,[18],1.8 µM (active)
same,AC50,[19],1.77 µM (active)
CC(C)(C)NC(=O)c1cc(Cl)ccc1[N+](=O)[O-],AC50,[15],11.5 µM (active)
O=C(NNC(=O)c1ccccc1O)c1cc2ccccc2o1,CC50,[20],19.2 µM (active)
Cc1cc(N)n2nc(-c3ccccc3)cc2n1,EC50,HT-1080,> 50 µM (not active)
same,EC50,[7],1.04 µM (active)
COc1ccccc1C(C#N)c1cccc(Cl)n1 (stereo not drawn),AC50,[15],0.85 µM (active)
Cc1cccc(NC(=O)c2csnn2)n1,IC50,[21],> 83.3 µM (inactive)
same,IC50,[22],> 109 µM (inactive)
COc1ccc(C(=O)NCC(=O)N2CCc3ccccc3C2)cc1,IC50,[21],> 83.3 µM (inactive)
same,IC50,[22],> 109 µM (inactive)
CCc1ccc(NC(=O)C[n+]2cc(-c3ccc(C)cc3)n3c2CCC3)cc1,IC50,[23],> 96.6 µM (inactive)
COCCNC(=O)c1cccc(OC2CCN(Cc3ccc(OC(F)F)cc3)CC2)c1,AC50,[8],> 30 µM (inactive)
Nc1ccc(Cl)cc1C(=O)c1ccccc1F,IC50,[1],> 40 µM (inactive)
same,IC50,[2],> 40 µM (inactive)
N#Cc1ccc(-c2ccc([C@@H]3[C@@H]4CN(C(=O)Nc5ccc(C(F)(F)F)cc5)C[C@H]3N4)cc2)cc1,AC50,[24],5.94 µM (active)
same,AC50,[25],20.5 µM (active)
COC(=O)C1=C(C)N(Cc2ccc(C(F)(F)F)cc2)C(NCC2CC2)=NC1c1ccccc1C(F)(F)F (stereo not drawn),IC50,[23],> 96.6 µM (inactive)
COc1ccc2c3c([nH]c2c1)[C@H](CO)N(Cc1ccc(Cl)cc1)CC31CN(Cc2nccs2)C1,AC50,[24],4.85 µM (active)
same,AC50,[25],31.9 µM (active)
